Measured values from patent US20150320709A1, “METHODS AND COMPOSITIONS FOR FACILITATING WEIGHT LOSS BY ADMINISTRATION OF THYROID HORMONES” (priority 2011, published 2015).

Test: Blood pressure and pulse of weight loss program patients on thyroid hormone treatment
Format: in vivo, human
Procedure: The first patient example is a person, 5′2″, weight 268 lbs, body mass index (BMI) 49 (nl 19-24; overweight 25-29; obesity≧30). Baseline blood pressure was 110/74, blood sugar (BS) was 153 mg/dL 10 days after their first visit. Their medical problems at baseline included obesity, type 2 diabetes mellitus (DM2), high blood pressure (HTN), fatigue, depression, and asthma. Their medications included glipizide 10 mg daily, amitriptyline 50 mg daily, metoprolol 50 mg daily, furosemide 40 mg daily, potassium chloride, lisinopril 10 mg daily, Advair Discus 500/50 twice daily (bid), and montelukast 10 mg daily. They were started on our comprehensive program. Five months after starting their weight loss treatment, they developed symptoms of hypothyroidism with constipation and fatigue. They had lost 28 lbs by this time and was having difficulty losing more weight even though they were eating less than they were before their weight loss treatment began. At the start of treatment, their FT4 was 0.9 ng/dL (nl 0.7-1.48). At the time of their low thyroid symptoms, their FT3 was 2.9 pg/mL (nl 1.71-3.71) and their FT4 was 0.91 ng/dL (nl 0.7-1.48). They were then treated with thyroid hormone (desiccated thyroid with a ratio of T4:T3 of about 4:1) at 60 mg daily for 6 days to acclimate, then increased to 120 mg daily. […] After two years on their weight loss treatment, their weight was 231 lbs. […] We tested for rT3 at this point. Their labs on the 150 mg dose of desiccated thyroid were: rT3 394 pg/mL (nl 90-350), FT3 3.94 pg/mL (nl 1.71-3.71), and FT4 1.24 ng/dL (nl 0.7-1.48). The task of bringing down their rT3 was then addressed. Over a period of a few months, their desiccated thyroid hormone was discontinued and instead the patient was given gradually increasing doses of T3 only, starting at 20 mcg daily and gradually increasing the T3 to 60 mcg bid. Five months after starting on T3 with increasing doses, their weight had dropped to 209 lbs. Their BP was 118/66 mmHg with pulse of 74 on lisinopril 10 mg daily, metoprolol 50 mg bid, and furosemide 40 mg daily. Instead of glipizide, they were taking metformin 500 mg bid. […] Their most recent labs on 60 mcg bid of T3 were FT3 3.8 pg/mL (nl 1.71-3.71), FT4 0.64 ng/dL (nl 0.7-1.48) and rT3 137 pg/mL (nl 90-350). Four months prior to this visit their BS was 125 mg/dl.
The second patient example is a person, 5′2″, weight 150 lbs, BMI 28 (nl 18.5-24.9; overweight 25-29.9; obesity≧30), with HTN. Their blood pressure was slightly elevated at 148/85 (on lisinopril 5 mg daily). Their medical problems at baseline included history of Hashimoto's thyroiditis, borderline high TSH, elevated lipids, and HTN. Their medications were lisinopril 5 mg daily, estradiol 2 mg daily, and rofecoxib 25 mg daily for osteoarthritis of their large joints. […]

[1] = Patient Example 1, on T3 only, with lisinopril, metoprolol, furosemide

Which BP [1] does the source give for N[C@@H](Cc1cc(I)c(Oc2ccc(O)c(I)c2)c(I)c1)C(=O)O [T3, (2S)-2-amino-3-[4-(4-hydroxy-3-iodo-phenoxy)-3,5-diiodo-phenyl]propanoic acid] here?
The BP was 118/66.

And the pulse [1]?
Its pulse is 74.

And the pulse (Patient Example 2, T3 only, 25 mcg bid)?
The pulse was 72.

And the BP (Patient Example 2, T3 only, 25 mcg bid, on no medications)?
Its BP is 122/80.
